Drawing on patent US12612412B2, “Antiviral heterocyclic compounds” (Enanta Pharmaceuticals, Inc., priority 2021, dated 2026), this text covers EC50 for 23 compounds.

This assay relates to genotype A, "Long" strain RSV. Nature of the assay: RSV-A assay (CPE protection in Hep-2 cells, ATPlite readout). It counts as cell-based, Human respiratory syncytial virus (HRSV). The following applies: human respiratory syncytial virus, genotype A “Long” strain RSV, MOI 0.1, CPE protection, read-out: Human RSV-A (“Long”). The essentials:
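Compound effect on RSV-induced CPE: Hep-2 monolayers, MOI 0.1, duplicate 2-fold titrations, 5-day culture in 10% FBS DMEM. Readout is ATP-based luminescence, normalised to virus-only and no-virus controls, giving EC50.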

The structures appear in SMILES notation.

As to `COc1ncc(F)cc1C(=O)NC[C@](O)(c1cc2c(c(-c3ccc(F)cc3)n1)OC[C@]2(C)C(N)=O)C(F)(F)F` [Example 412], the EC50 is above 200 nM.
The same measure for `C[C@]1(C(N)=O)COc2c1cc([C@@](O)(CNC(=O)c1cn3ccccc3n1)C(F)(F)F)nc2-c1ccc(F)cc1` [Example 413]: above 200 nM.
To `C[C@]1(C(N)=O)COc2c1cc([C@@](O)(CNC(=O)c1cc(Cl)cc3[nH]ncc13)C(F)(F)F)nc2-c1ccc(F)cc1` [Example 414] belongs above 200 nM; to `C[C@]1(C(N)=O)COc2c1cc([C@@](O)(CNC(=O)c1cccc3[nH]ccc13)C(F)(F)F)nc2-c1ccc(F)cc1` [Example 415], above 200 nM; to `Cc1ccnnc1C(=O)NC[C@](O)(c1cc2c(c(-c3ccc(F)cc3)n1)OC[C@]2(C)C(N)=O)C(F)(F)F` [Example 416], above 200 nM.
On to `C[C@]1(C(N)=O)COc2c1cc([C@@](O)(CNC(=O)c1ccc3nccn3n1)C(F)(F)F)nc2-c1ccc(F)cc1` [Example 417], for which the EC50 is above 200 nM.
To `C[C@]1(C(N)=O)COc2c1cc([C@@](O)(CNC(=O)c1ccc3ccnn3c1)C(F)(F)F)nc2-c1ccc(F)cc1` [Example 418] belongs below 200 nM; to `C[C@]1(C(N)=O)COc2c1cc([C@@](O)(CNC(=O)c1sc3ccccc3c1Cl)C(F)(F)F)nc2-c1ccc(F)cc1` [Example 419], above 200 nM; to `C[C@]1(C(N)=O)COc2c1cc([C@@](O)(CNC(=O)c1nc3ccccc3[nH]1)C(F)(F)F)nc2-c1ccc(F)cc1` [Example 420], above 200 nM.
The same measure for `C[C@]1(C(N)=O)COc2c1cc([C@@](O)(CNC(=O)c1ccccn1)C(F)(F)F)nc2-c1ccc(F)cc1` [Example 421]: above 200 nM.
The same measure for `C[C@]1(C(N)=O)COc2c1cc([C@@](O)(CNC(=O)c1cc3cc(F)ccc3[nH]1)C(F)(F)F)nc2-c1ccc(F)cc1` [Example 422]: above 200 nM; for `COc1ccc(C(=O)NC[C@](O)(c2cc3c(c(-c4ccc(F)cc4)n2)OC[C@]3(C)C(N)=O)C(F)(F)F)cc1C` [Example 423]: above 200 nM.
As for `Cn1nc2ccccc2c1C(=O)NC[C@](O)(c1cc2c(c(-c3ccc(F)cc3)n1)OC[C@]2(C)C(N)=O)C(F)(F)F` [Example 424], the EC50 is above 200 nM.
The same measure for `Cn1cccc1C(=O)NC[C@](O)(c1cc2c(c(-c3ccc(F)cc3)n1)OC[C@]2(C)C(N)=O)C(F)(F)F` [Example 425]: above 200 nM; for `C[C@]1(C(N)=O)COc2c1cc([C@@](O)(CNC(=O)c1ncc[nH]1)C(F)(F)F)nc2-c1ccc(F)cc1` [Example 426]: above 200 nM.
To `COc1cccc(C(=O)NC[C@](O)(c2cc3c(c(-c4ccc(F)cc4)n2)OC[C@]3(C)C(N)=O)C(F)(F)F)c1F` [Example 427] belongs above 200 nM; to `COc1ncccc1C(=O)NC[C@](O)(c1cc2c(c(-c3ccc(F)cc3)n1)OC[C@]2(C)C(N)=O)C(F)(F)F` [Example 428], above 200 nM; to `C[C@]1(C(N)=O)COc2c1cc([C@@](O)(CNC(=O)c1cccc3[nH]cnc13)C(F)(F)F)nc2-c1ccc(F)cc1` [Example 429], above 200 nM.
To `COc1cccc2oc(C(=O)NC[C@](O)(c3cc4c(c(-c5ccc(F)cc5)n3)OC[C@]4(C)C(N)=O)C(F)(F)F)cc12` [Example 430] belongs above 200 nM; to `Cc1ncc(C(=O)NC[C@](O)(c2cc3c(c(-c4ccc(F)cc4)n2)OC[C@]3(C)C(N)=O)C(F)(F)F)s1` [Example 431], above 200 nM.
Consider `Cc1cc(C(=O)NC[C@](O)(c2cc3c(c(-c4ccc(F)cc4)n2)OC[C@]3(C)C(N)=O)C(F)(F)F)c2ccccc2n1` [Example 432], for which the EC50 was above 200 nM.
As for `C[C@]1(C(N)=O)COc2c1cc([C@@](O)(CNC(=O)c1ccn3nccc3n1)C(F)(F)F)nc2-c1ccc(F)cc1` [Example 433], the EC50 is above 200 nM.
To `C[C@]1(C(N)=O)COc2c1cc([C@@](O)(CNC(=O)c1cc3cc(F)ccc3s1)C(F)(F)F)nc2-c1ccc(F)cc1` [Example 434] belongs above 200 nM.
